Experimental data reported in US20250057772A1, “ORAL DOSAGE FORM WITH IONICALLY CHARGEABLE HYDROGEL FOR DELIVERY OF ACTIVE AGENT” (Entrega Inc., priority 2022, published 2025).
Values belong to the compound of their own block, whether it stands above or below them.

Key:
[1] = published values; cited from earlier work
[2] = Exclusion or binding of ionic agents by Hydrogel #3.02, exterior fluid concentration by UV absorbance; type: physicochemical
Protocol: Sodium caprate (sodium decanoate) is a known intestinal permeation enhancer with a negative charge (negative charge on the caprate). Sodium caprate (280 mg) was dissolved in 5 mL of modified pH 7 FASSIF buffer.
The intestinal permeation enhancer, sodium caprate (280 mg) was added.
Octreotide (as octreotide acetate) is an FDA approved therapeutic peptide with a molecular weight of 1019 g/mole and a net positive charge at pH below 8 (isoelectric point of octreotide=8.5). Octreotide (5 mg) was dissolved in 5 mL of modified FASSIF buffer at pH 7 (resulting in a starting concentration of 1 mg/mL).
Lanreotide is an FDA approved therapeutic peptide with a molecular weight of 1096 g/mole and a net positive charge at pH below 8. Lanreotide (5 mg) was dissolved in 5 mL of modified FASSIF buffer at pH 7.
Lanreotide is an FDA approved therapeutic peptide with a molecular weight of 1096 g/mole and a net positive charge at pH below 8. Lanreotide (5 mg) was dissolved in 5 mL of deionized water.

[3] = Evans Blue exclusion procedure; type: physicochemical; conditions: 0.125 mg/mL Evans Blue in FASSIF buffer pH 7, hydrogel #12.035 for 40, 60, 80, 90% fluid uptake; p<0.001 vs no hydrogel
Excerpt: Commercially obtained Evan's blue dye was used as a surrogate marker for an anionic drug in hydrogel testing. It has a molecular weight of 961.8 g/mole and has four negative charges at pH 7 due to four sulfonate groups in the structure. Its visible light absorbance at 605 nm provides an easy way to monitor the concentration of the dye when exposed to the hydrogel in solution.
FASSIF buffer was created by adding 41.65 g of FASSIF buffer concentrate (Biorelevant Media, code FaSSIF) to 961.1 g DI water and stirred until completely mixed. Evans Blue solution was created by adding Evans Blue to approximately half of the FASSIF solution such that the final concentration of the media is 0.125 mg/mL Evans Blue.
5 mL of Evans Blue solution was added to a 15 mL centrifuge tube (EB Tube). 5 mL of FASSIF buffer (without Evans Blue) was added to another 15 mL tube (Background Tube). 200 mg of sub-63 um hydrogel #12.035 was added to both tubes. Vortexed tubes until fully mixed and placed both tubes on rocker plate for 15 minutes. After 15 minutes, both tubes were centrifuged at 3000 g for 1 minute. (N=3) 20 μL samples were extracted from the supernatant of both tubes and diluted into 180 μL of DI water in 96-well UV-clear plate. […] The plate was read for absorbance at 605 nm.
The absorbance reading samples from each group were averaged. […]

Structure (SMILES): COS(=O)(=O)O [methanesulfate]
pKa [1]: −3.4

Structure (SMILES): CCCN [propylamine]
pKa [1]: ~10.7

concentration of caprate in the exterior fluid relative to initial concentration ([2]; 280 mg in 5 mL modified pH 7 FASSIF, Hydrogel #3.02 300 mg): ~1.4 times the initial concentration
Structure (SMILES): CCCCCCCCCC(=O)[O-].[Na+] [Sodium caprate, sodium decanoate]

concentration in the exterior fluid ([2]; 5 mg in 5 mL modified FASSIF pH 7 (start 1 mg/mL), Hydrogel #3.02 300 mg, after 10 minutes): less than 0.8 mg/mL
Structure (SMILES): C[C@@H](O)[C@@H]1NC(=O)[C@H](CCCCN)NC(=O)[C@@H](Cc2c[nH]c3ccccc23)NC(=O)[C@H](Cc2ccccc2)NC(=O)[C@@H](NC(=O)[C@H](N)Cc2ccccc2)CSSC[C@@H](C(=O)N[C@H](CO)[C@@H](C)O)NC1=O [Octreotide]

relative concentration of the dye as hydrogel is added [3]: increasing concentration
Structure (SMILES): Cc1cc(-c2ccc(/N=N/c3ccc4c(S(=O)(=O)O)cc(S(=O)(=O)O)c(N)c4c3O)c(C)c2)ccc1/N=N/c1ccc2c(S(=O)(=O)O)cc(S(=O)(=O)O)c(N)c2c1O [Evans Blue]

Structure (SMILES): CC(C)[C@@H]1NC(=O)[C@H](CCCCN)NC(=O)[C@@H](Cc2c[nH]c3ccccc23)NC(=O)[C@H](Cc2ccc(O)cc2)NC(=O)[C@@H](NC(=O)[C@H](N)Cc2ccc3ccccc3c2)CSSC[C@@H](C(=O)N[C@H](C(N)=O)[C@@H](C)O)NC1=O [Lanreotide]
concentration in the exterior fluid ([2]; 5 mg in 5 mL deionized water, Hydrogel #3.02 300 mg, after 25 minutes): less than 0.05 mg/mL | concentration in the exterior fluid ([2]; 5 mg in 5 mL modified FASSIF pH 7, Hydrogel #3.02 300 mg, after 25 minutes): ~300 µg/mL

Structure (SMILES): CCS(=O)(=O)O [ethanesulfonic acid]
pKa [1]: −1.68
